Among the test systems are A498 renal; COLO 205 colon; DLD-1 colon; DMS 114 small cell lung; DMS 273 small cell lung; HCT-15 colon; HOP-62 NSCLC; KM20L2 colon; LXFL 529 NSCLC; M19-MEL melanoma; SK-MEL-2 melanoma; SNB-78 CNS; XF 498 CNS; RXF-631 renal; HOP-18 NSCLC; MDA-MB-435; P388 leukemia; P388/ADR leukemia.
Holding throughout (experiment): NCI tumour cell line growth inhibition, 48 h

The text below walks through data of PubChem BioAssay (NCI).

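Dose response: 5 concentrations. Exposure: 48 h. Format: 96-well plates. Endpoint: linear interpolation; highest concentration if not reached. TGI denotes the concentration required for complete inhibition of growth.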

In the case of `O=C(O)C(Cc1cnc[nH]1)N=Cc1nc(-c2ccccc2)oc1O` (centres undefined), the TGI in the test on A498 renal, with COLO 205 colon, in the test on DLD-1 colon, with DMS 114 small cell lung, in the test with DMS 273 small cell lung and in the test with HCT-15 colon was greater than 100 µM throughout. In addition, the TGI with HOP-62 NSCLC, with KM20L2 colon, with LXFL 529 NSCLC, in the test on M19-MEL melanoma, in the test on SK-MEL-2 melanoma and in the test with SNB-78 CNS was greater than 100 µM each time. For the same compound, the TGI in the test with XF 498 CNS was greater than 100 µM.

As to `Cc1ccc(S(=O)(=O)N/N=C/c2oc(-c3ccccc3Cl)c(-c3ccccc3Cl)c2[N+](=O)[O-])cc1`, the TGI is 61.8 µM in the test with A498 renal; greater than 100 µM with COLO 205 colon; 47.9 µM with DLD-1 colon; 76.7 µM in the test on DMS 114 small cell lung; 43.5 µM in the test on HOP-62 NSCLC; 37.9 µM in the test on KM20L2 colon. The TGI came out at 65 µM in the test on M19-MEL melanoma, 60.3 µM with RXF-631 renal and 76.9 µM with SK-MEL-2 melanoma.

As to `O=C1SC(c2ccccc2)(c2ccccc2)c2ccccc21`, the TGI is greater than 100 µM in the test with COLO 205 colon; greater than 100 µM in the test on DLD-1 colon; 94.4 µM in the test on DMS 114 small cell lung; greater than 100 µM in the test with DMS 273 small cell lung; greater than 100 µM with HCT-15 colon; greater than 100 µM in the test on HOP-18 NSCLC. Also, the TGI with HOP-62 NSCLC, with KM20L2 colon, in the test on LXFL 529 NSCLC, in the test on M19-MEL melanoma, in the test on SK-MEL-2 melanoma and in the test with SNB-78 CNS was greater than 100 µM each time. The compound further yielded a TGI with XF 498 CNS greater than 100 µM.

As for `O=NNc1cnccn1`, the TGI in the test with A498 renal, with COLO 205 colon, in the test with DLD-1 colon, in the test with DMS 114 small cell lung, in the test with DMS 273 small cell lung and in the test with HCT-15 colon was greater than 1250 µM throughout. In addition, the TGI is greater than 1250 µM with HOP-18 NSCLC; 265 µM in the test with HOP-62 NSCLC; greater than 1250 µM with KM20L2 colon; greater than 1250 µM in the test with M19-MEL melanoma; greater than 1250 µM with MDA-MB-435; greater than 1250 µM with P388 leukemia. Besides, the TGI in the test on P388/ADR leukemia, with SK-MEL-2 melanoma and in the test on SNB-78 CNS was greater than 1250 µM in each case.

In the case of `O=c1[nH]c(=O)n(C2CC(O)C(CO)O2)cc1C#Cc1cc(C(F)(F)F)cc(C(F)(F)F)c1` (centres undefined), the TGI was greater than 100 µM with A498 renal; greater than 42.7 µM in the test on COLO 205 colon; greater than 100 µM with DLD-1 colon; greater than 100 µM in the test on DMS 114 small cell lung; greater than 93.6 µM with DMS 273 small cell lung; greater than 100 µM in the test with HCT-15 colon. The TGI in the test with HOP-18 NSCLC was greater than 100 µM; in the test on HOP-62 NSCLC, greater than 100 µM; with KM20L2 colon, greater than 100 µM; in the test on LXFL 529 NSCLC, greater than 100 µM; in the test on M19-MEL melanoma, greater than 74 µM; in the test with RXF-631 renal, greater than 100 µM. The values for the TGI in the test on SK-MEL-2 melanoma, in the test with SNB-78 CNS and in the test on XF 498 CNS were greater than 100 µM, greater than 100 µM and greater than 86.6 µM, respectively.

As for `CC(C)[Si](OCC1CC(C[C@H]2CC(C[C@H]3C[C@@H](CO[Si](C(C)C)(C(C)C)C(C)C)OC(C)(C)O3)OC(C)(C)O2)OC(C)(C)O1)(C(C)C)C(C)C` (some centres undefined), the TGI with A498 renal, with COLO 205 colon, in the test on DLD-1 colon, in the test on DMS 114 small cell lung, in the test with DMS 273 small cell lung and in the test on HOP-18 NSCLC was greater than 100 µM in each case. The TGI in the test with HOP-62 NSCLC, with KM20L2 colon, in the test on M19-MEL melanoma, in the test with SK-MEL-2 melanoma and in the test with SNB-78 CNS was greater than 100 µM in each case.

Consider `CC(C)C(Sc1nc(-c2ccccc2)c(-c2ccccc2)[nH]1)C(=O)N/N=C/c1ccc([N+](=O)[O-])cc1` (centres undefined), for which the TGI is 42.6 µM in the test on A498 renal; 24.9 µM in the test on COLO 205 colon; greater than 100 µM with DLD-1 colon; 68.2 µM in the test with DMS 114 small cell lung; 27.5 µM with DMS 273 small cell lung; 36.5 µM with HCT-15 colon. The TGI is 37.8 µM with HOP-62 NSCLC; 32.9 µM in the test on KM20L2 colon; 33.8 µM in the test with LXFL 529 NSCLC; 23.8 µM in the test on M19-MEL melanoma; 29.4 µM in the test with SK-MEL-2 melanoma; greater than 100 µM with SNB-78 CNS. The TGI in the test with XF 498 CNS stood at 41 µM.

For the compound `NC(CCCCN=Cc1nc(-c2ccccc2)oc1O)C(=O)O` (centres undefined), the TGI in the test with A498 renal, with COLO 205 colon, with DLD-1 colon, in the test with DMS 114 small cell lung, in the test with DMS 273 small cell lung and in the test with HCT-15 colon was greater than 100 µM each time. In addition, the TGI in the test with HOP-62 NSCLC, with KM20L2 colon, in the test on LXFL 529 NSCLC, in the test on M19-MEL melanoma, with SK-MEL-2 melanoma and with SNB-78 CNS was greater than 100 µM each time. This compound also returned a TGI with XF 498 CNS greater than 100 µM.

Take `COc1cc2c(oc(=O)c3cc4ccoc4c(OC)c32)c2cccc(O)c12`: the TGI in the test on A498 renal, with COLO 205 colon, with DLD-1 colon, with DMS 114 small cell lung, in the test on DMS 273 small cell lung and in the test on HCT-15 colon was greater than 100 µM each time. Besides, the TGI in the test on HOP-18 NSCLC, in the test on HOP-62 NSCLC, in the test with KM20L2 colon, in the test with LXFL 529 NSCLC, in the test with M19-MEL melanoma and in the test on SK-MEL-2 melanoma was greater than 100 µM in each case. Further, the TGI in the test with SNB-78 CNS and in the test with XF 498 CNS was greater than 100 µM each time.

For `NC(CCCNc1cccc(O)c1)C(=O)O` (centres undefined), the TGI with A498 renal, in the test with COLO 205 colon, with DLD-1 colon, in the test with DMS 114 small cell lung, with DMS 273 small cell lung and in the test on HCT-15 colon was greater than 100 µM throughout. The TGI in the test on HOP-18 NSCLC, in the test with HOP-62 NSCLC, in the test on KM20L2 colon, with LXFL 529 NSCLC, in the test with M19-MEL melanoma and in the test on SK-MEL-2 melanoma was greater than 100 µM each time. In the test with SNB-78 CNS, this compound came in with a TGI greater than 100 µM.
